Measurements reported in patent publication US20040101534A1 (priority 2002, published 2004).
Entries after “also recorded” stand apart in the source; their conditions may differ.

Key:
[1] = tested on: T2 cells loaded with pp65495-503; conditions: mouse, in vivo; cited from earlier work
human PBL = conditions: cited from earlier work
[2] = tested on: JA2.1 T cells infected with vaccinia virus expressing pp65; design: species or system HLA A2.1/K^b transgenic mice; conditions: mouse, in vivo, sc

Row | Sequence | CTL response directed at the pp65495-503 CTL epitope [1] | CTL precursor memory response (human PBL) | recognition of endogenously processed pp65 [2]
1 | NLVPMVATV [pp65495-503] | robust CTL response | stimulates a CTL precursor (CTLp) memory response | –
2 | VSTIVPYIGPALNIAAANLVPMVATV [Tet639V] | – | – | evident; also recorded: more prominent
